Data published in US20210301315A1, “METHODS FOR TREATING POLYMICROBIAL INFECTIONS” (priority 2017, published 2021).

Tests used:
[1] = system: bacterial organisms present in patient urine sample; test: Antibiotic Resistance (ABR) assay utilizing liquid growth medium; type: cell-based; conditions: liquid medium; for overall sensitivity of the bacteria in the sample to the antibiotic (in words): Example 4 sample
Method: Urine samples suitable for processing with this assay are collected, transported, and stored using BD Vacutainer tubes or other suitable leak-proof sterile containers. Urine samples may be held at room temperature for 48 hours before test results are compromised.
Antibiotic stocks are stored at 2-8° C. and protected from direct sunlight. Prepared antibiotic stock solutions were aliquoted into a 96-deep well plate (ThermoFisher Scientific) to form a 50× Antibiotic Source Plate and then diluted 1:5 to form a 10× Antibiotic Source Plate, as shown in FIG. 12 where each well is identified by antibiotic name and concentration (μg/mL; 10× final concentration). […] One well was assigned sodium azide to ensure no bacterial growth would be observed in that well.
Twenty microliters of each antibiotic solution were aliquoted into the pre-determined wells of a 96-well microplate (VIS 96/F-PS, Eppendorf) from the 10× Antibiotic Source Plate to create ABR testing plates for inoculation. These ABR testing plates were allowed to sit for up to 24 hours before use at 2-8° C. in the dark.
At the time of testing, urine samples were centrifuged to concentrate any bacterial cells and then mixed with liquid Mueller-Hinton medium and incubated for 6-16 hours at 37° C. After this initial incubation, the sample is diluted to 0.5-0.6 McF in saline and then 500 μl of that suspension was added to […] of Mueller-Hinton medium. One-hundred and eighty microliters of the diluted sample is then aliquoted to each well of the ABR microplate already containing 10× antibiotic solution, bringing all of the antibiotics to the desired final concentration. The plate is then sealed and incubated for 12-16 hours at 37° C.
After incubation, the plate was removed from the incubator and carefully uncovered and the OD600 was determined for each appropriate well by spectrophotometer. Five separate measurements were taken of each well on a plate and the mean OD600 measurement calculated for each well.
Controls are depicted in Table 10.
The raw data was then “blanked” using the measurement obtained from the Na-Azide well, as depicted in Table 14.
(§1) To determine whether bacterial organisms present in the patient samples were resistant or sensitive to a particular antibiotic at a certain concentration, blanked OD readings were compared to a threshold OD600 of 0.065 (Table 15). An OD measurement greater than or equal to this threshold was designated Resistant (R) meaning bacterial organisms present in patient sample were resistant to that particular antibiotic at that certain concentration. Any OD measurement less than this threshold was designated Sensitive (S) meaning bacterial organisms present in patient sample were sensitive to that particular antibiotic at that certain concentration.

[2] = system: bacterial organisms present in patient urine sample; test: Antibiotic Resistance (ABR) assay utilizing agar-containing medium; type: cell-based; conditions: for overall sensitivity of the bacteria in the sample to the antibiotic (in words): Example 2 sample
Method: Urine samples suitable for processing with this assay are collected, transported, and stored using BD Vacutainer (gray top) tubes or other suitable leak-proof sterile container. Urine samples may be held at room temperature for 48 hours before test results are compromised.
Antibiotic stocks are stored at 2-8° C. and protected from direct sunlight. Prepared antibiotic stock solutions were aliquoted into a 96-deep well plate (Thermo Fisher Scientific) to form an Antibiotic Source Plate, as shown in FIG. 11 and identified by antibiotic name and concentration (μg/mL; 10× final concentration). […] One well was designated AB-blend which contained a combination of antibiotics to ensure there was no bacterial growth.
One hundred microliters of Mueller-Hinton agar medium was aliquoted into each appropriate well position of a 96-well microplate (VIS 96/F-PS, Eppendorf). The medium was allowed to solidify at room temperature for at least 10 min.
The antibiotics (10 μL) at various concentrations were then aliquoted into desired wells from the Antibiotic Source Plate. After the antibiotics were introduced to the agar medium, the ABR microplates were allowed to sit for at least 1 hr before use. If long-term storage is required, ABR microplates containing antibiotic-infuse agar are stored at 2-8° C. in the dark.
At the time of testing, urine samples were diluted 1:20 in sterile saline and vortexed. Each patient sample utilized a single ABR microplate. Five microliters of diluted patient sample were added to each well of the room temperature microplate, the plate was sealed and incubated for 16-18 hr at 37° C.
After incubation, the plate was removed from the incubator and carefully uncovered. Two-hundred microliters of deionized water were added to each well to suspend cells present above the agar and the plates incubated at room temperature for 30 min. After 30 min, 100 μl from each well was removed to a new plate and the OD600 was determined in a spectrophotometer. Five separate reads were taken of each plate and a mean OD600 measurement calculated.
Controls include: No-antibiotic control, Negative control plate, and AB-Blend. No antibiotic control: Any well containing medium that is not infused with antibiotics to ensure viability of bacterial cells present in patient urine samples and included in each plate. […] Negative control plate: Microplate containing antibiotic-infused agar medium without addition of patient sample or cultured bacterial organisms to ensure non-contamination of reagents. AB-Blend: One or more wells containing a combination of antibiotics to ensure there is no bacterial growth.
The raw data was then “blanked” using the measurement obtained from the AB-Blend well, as depicted in Table 5.
as §1, with “0.025” for “0.065”, “6). Any” for “15). An”

| Structure (SMILES) | Blanked (OD600 minus Na-Azide well) ([1]; antibiotic 4 μg/mL) | Mean (OD600) ([1]; antibiotic 4 μg/mL) | Blanked (OD600 minus Na-Azide well) ([1]; antibiotic 8 μg/mL) | Mean (OD600) ([1]; antibiotic 8 μg/mL) | Blanked (OD600 minus Na-Azide well) ([1]; antibiotic 32 μg/mL) | Mean (OD600) ([1]; antibiotic 32 μg/mL) | overall sensitivity of the bacteria in the sample to the antibiotic (in words) [2] | Blanked (OD600 minus AB-Blend well) ([2]; antibiotic 4 μg/mL) | Mean (OD600) ([2]; antibiotic 4 μg/mL) | Blanked (OD600 minus AB-Blend well) ([2]; antibiotic 8 μg/mL) | Mean (OD600) ([2]; antibiotic 8 μg/mL) | Blanked (OD600 minus AB-Blend well) ([2]; antibiotic 16 μg/mL) | Mean (OD600) ([2]; antibiotic 16 μg/mL) | Blanked (OD600 minus AB-Blend well) ([2]; antibiotic 32 μg/mL) | Mean (OD600) ([2]; antibiotic 32 μg/mL) | Blanked (OD600 minus Na-Azide well) ([1]; antibiotic 1 μg/mL) | Mean (OD600) ([1]; antibiotic 1 μg/mL) | overall sensitivity of the bacteria in the sample to the antibiotic (in words) [1] | Blanked (OD600 minus AB-Blend well) ([2]; antibiotic 1 μg/mL) | Mean (OD600) ([2]; antibiotic 1 μg/mL) | other results |
| --- | --- | --- | --- | --- | --- | --- | --- | --- | --- | --- | --- | --- | --- | --- | --- | --- | --- | --- | --- | --- | --- |
| CO[C@@]1(NC(=O)Cc2cccs2)C(=O)N2C(C(=O)O)=C(COC(N)=O)CS[C@@H]21 [Cefoxitin, cefoxitin] | 0.1745 | 0.2202 | 0.1831 | 0.2288 | 0.1891 | 0.2348 | sensitive | 0.0017 | 0.0401 | 0.0008 | 0.0392 | 0.0005 | 0.0389 | 0.0005 | 0.0389 |  |  |  |  |  |  |
| O=C(O)c1cn(C2CC2)c2cc(N3CCNCC3)c(F)cc2c1=O [Ciprofloxacin, ciprofloxacin] | −0.0034 | 0.0423 |  |  |  |  | sensitive | 0.0003 | 0.0387 |  |  |  |  |  |  | −0.0016 | 0.0441 | sensitive | 0.0024 | 0.0408 | Blanked (OD600 minus AB-Blend well) ([2]; antibiotic 2 μg/mL): 0.0030; Mean (OD600) ([2]; antibiotic 2 μg/mL): 0.0414 |
| CO/N=C(\C(=O)N[C@@H]1C(=O)N2C(C(=O)O)=C(CSc3nc(=O)c(=O)[nH]n3C)CS[C@H]12)c1csc(N)n1 [Ceftriaxone, ceftriaxone] | 0.1900 | 0.2357 | 0.1992 | 0.2449 |  |  | sensitive | 0.0021 | 0.0405 | 0.0008 | 0.0392 | 0.0007 |  | 0.0002 | 0.0386 | 0.2028 | 0.2485 |  | 0.0061 | 0.0445 | Blanked (OD600 minus Na-Azide well) ([1]; antibiotic 64 μg/mL): 0.1899; Mean (OD600) ([1]; antibiotic 64 μg/mL): 0.2356; Blanked (OD600 minus AB-Blend well) ([2]; antibiotic 2 μg/mL): 0.0048; Mean (OD600) ([2]; antibiotic 2 μg/mL): 0.0432; Blanked (OD600 minus AB-Blend well) ([2]; antibiotic 64 μg/mL): 0.0001; Mean (OD600) ([2]; antibiotic 64 μg/mL): 0.0385 |
| C[C@@H](O)[C@H]1C(=O)N2C(C(=O)O)=C(S[C@@H]3CN[C@H](C(=O)N(C)C)C3)[C@H](C)[C@H]12 [Meropenem, meropenem] | 0.1099 | 0.1556 | 0.0039 | 0.0496 |  |  | sensitive | 0.0006 | 0.0390 | 0.0001 | 0.0385 |  |  |  |  | 0.1741 | 0.2198 |  | 0.0008 | 0.0392 | Blanked (OD600 minus Na-Azide well) ([1]; antibiotic 2 μg/mL): 0.1471; Mean (OD600) ([1]; antibiotic 2 μg/mL): 0.1928; Blanked (OD600 minus AB-Blend well) ([2]; antibiotic 2 μg/mL): 0.0004; Mean (OD600) ([2]; antibiotic 2 μg/mL): 0.0388 |
| CN[C@H](CC(C)C)C(=O)N[C@H]1C(=O)N[C@@H](CC(N)=O)C(=O)N[C@H]2C(=O)N[C@H]3C(=O)N[C@H](C(=O)N[C@H](C(=O)O)c4cc(O)cc(O)c4-c4cc3ccc4O)[C@H](O)c3ccc(c(Cl)c3)Oc3cc2cc(c3O[C@@H]2O[C@H](CO)[C@@H](O)[C@H](O)[C@H]2O[C@H]2C[C@](C)(N)[C@H](O)[C@H](C)O2)Oc2ccc(cc2Cl)[C@H]1O [Vancomycin, vancomycin] | −0.0032 | 0.0425 |  |  | −0.0031 | 0.0426 |  |  |  |  |  |  | 0.4918 |  |  | 0.0047 | 0.0504 | sensitive |  |  | Blanked (OD600 minus Na-Azide well) ([1]; antibiotic 2 μg/mL): −0.0022; Mean (OD600) ([1]; antibiotic 2 μg/mL): 0.0435; Blanked (OD600 minus Na-Azide well) ([1]; antibiotic 16 μg/mL): −0.0026; Mean (OD600) ([1]; antibiotic 16 μg/mL): 0.0431 |
| CC1(C)S[C@@H]2[C@H](NC(=O)[C@H](N)c3ccccc3)C(=O)N2[C@H]1C(=O)O [Ampicillin, ampicillin] |  |  | −0.0040 | 0.0417 | −0.0039 | 0.0418 |  |  |  | 0.4496 | 0.4880 | 0.4838 | 0.5222 | 0.4440 | 0.4824 |  |  | sensitive |  |  | Blanked (OD600 minus Na-Azide well) ([1]; antibiotic 16 μg/mL): −0.0038; Mean (OD600) ([1]; antibiotic 16 μg/mL): 0.0419 |
